Experimental data from patent US10227663B2, “Non-replicative transduction particles and transduction particle-based reporter systems” (priority 2013, dated 2019).
≈ marks a conversion by molar mass, not a printed value. Read-outs that look alike come from different tables or passages of the source.

What was measured:
[1] = tested on: cefoxitin resistant S. aureus (MRSA strains); assay: MIC determination via plating on TSA plates containing cefoxitin; format: cell-based; settings: Staphylococcus aureus
Experimental: (§1) Overnight Culture: For each MRSA strain ([…] and S7) and a MSSA negative control strain (MSSA121), 2 mL of TSB were inoculated with a colony of the strain previously grown on TSA plates. Overnight MRSA cultures included 5 ug/mL cefoxitin. All samples were incubated overnight at 37° C. in a shaking incubator.
(§2) Day Culture: 20 uL of each of the overnight cultures were transferred into a new culture tube containing 2 mL of Growth Media Reagent. The inoculums were then incubated at 37 C with shaking for approximately 1 hr 45 min, until the OD(600 nm) reached 0.1.
a) Each of the day cultures was streaked onto TSA plates containing cefoxitin at 4, 8, 16, 32, 64, and 128 ug/mL.
b) Plates were incubated for 18 hours at 37 C to determine growth.

[2] = tested on: cefoxitin resistant S. aureus (MRSA strains); assay: NRTP-based cefoxitin susceptibility assay (luminescence); format: cell-based, Staphylococcus aureus
Experimental: as §1, §2
a) Wells of a white 96 well assay plate were filled with 100 uL of 2× Transduction Particle Reagent.
b) For each of the day cultures, five wells were then filled with 100 uL of day culture.
c) For each of the day cultures, cefoxitin was added to one well each such that the cefoxitin concentration in the well was at 4, 8, 16, 32, 64, and 128 ug/mL. […]
At the end of 4 hours, the plate was remove from incubator and immediately measured for luminescence on a SpectraMax L that injected 50 μl of the Substrate Reagent and measured luminescence for a period of 1 minute.
The maximum luminescence value after Substrate Reagent addition from each sample was plotted. MSSA sample RLU values were used to determine a Cutoff calculated using the following formula: (Mean MSSA RLU+3*SD MSSA RLU).

**Q.** `CO[C@@]1(NC(=O)Cc2cccs2)C(=O)N2C(C(=O)O)=C(COC(N)=O)CS[C@@H]21` [cefoxitin] was tested. Which MIC ([1]; MRSA / NRS 25, 18 h) did it give?
**A.** The MIC was 128 µg/mL (≈ 299 µM).

**Q.** What about the MIC ([1]; MRSA S7, TSA plates, 18 hours at 37 C, read-out: MIC) of the same molecule?
**A.** The MIC was 64 µg/mL (≈ 150 µM).

**Q.** And the “Cefoxitin concentration up to which luminescence was above the MSSA RLU cutoff” value ([2]; MRSA NRS25, 4 hours at 37° C.)?
**A.** The value was “up to 64 ug/mL”.

**Q.** What about the “Cefoxitin concentration up to which luminescence was above the MSSA RLU cutoff” value ([2]; MRSA S7, 4 hours at 37° C.) of the same molecule?
**A.** Its value is “up to 32 ug/mL”.
